According to ChEMBL document CHEMBL5360545, “Multitargeted drug design strategy for discovery of short-peptide-based HIV-1 entry inhibitors with high potency” (Eur J Med Chem, 2023):
Side chains are listed from the residue outwards. Peptide text beside a SMILES is read from it. * marks the point of attachment. PEG24 = NCCOCCOCCOCCOCCOCCOCCOCCOCCOCCOCCOCCOCCOCCOCCOCCOCCOCCOCCOCCOCCOCCOCCOCCOCCC(=O)O; X3 = Cc1ccc(N(CCCN2CCN(Cc3ccc(F)cc3)CC2)C(=O)C2CCN(C(=O)COCC(=O)*)CC2)cc1Cl; X1 = CC(=O)N1CCC(C(=O)N(CCCN2CCC(Cc3ccc(C(=O)*)cc3)CC2)c2ccc(C)c(Cl)c2)CC1; PEG12 = NCCOCCOCCOCCOCCOCCOCCOCCOCCOCCOCCOCCOCCC(=O)O; PEG8 = NCCOCCOCCOCCOCCOCCOCCOCCOCCC(=O)O; PEG4 = NCCOCCOCCOCCOCCC(=O)O

System: Human immunodeficiency virus 1
Assay: Antiviral activity against HIV-1 Bal-R5 infected in human CEMx174 5.25M7 cells assessed as reduction in p24 antigen level measured after 4 days by ELISA
Assay type: functional, organism-based
Conditions: Human immunodeficiency virus 1, Bal-R5, CEMx174 5.25M7, 96 h

Row | Structure (SMILES) | EC50 [nM]
1 | CC[C@H](C)[C@H](NC(C)=O)C(=O)N[C@@H](CCC(=O)O)C(=O)N[C@@H](CCC(=O)O)C(=O)N[C@@H](CC(C)C)C(=O)N[C@H](C(=O)N[C@@H](CCCNC(=N)N)C(=O)N[C@@H](C)C(=O)N[C@@H](C)C(=O)N[C@@H](CCC(N)=O)C(=O)N[C@@H](CCC(=O)O)C(=O)N[C@@H](CCC(N)=O)C(=O)N[C@@H](CCC(N)=O)C(=O)N[C@@H](CCCNC(=N)N)C(=O)N[C@@H](CCCCN)C(=O)N[C@@H](CC(N)=O)C(=O)N[C@@H](CCC(=O)O)C(=O)N[C@@H](CCC(=O)O)C(=O)N[C@@H](C)C(=O)N[C@@H](CC(C)C)C(=O)N[C@@H](CCCNC(=N)N)C(=O)N[C@@H](CCC(=O)O)C(=O)N[C@@H](CC(C)C)C(=O)N[C@@H](CCCCNC(=O)CCOCCOCCOCCOCCOCCOCCOCCOCCOCCOCCOCCOCCNC(=O)COCC(=O)N1CCC(C(=O)N(CCCN2CCN(Cc3ccc(F)cc3)CC2)c2ccc(C)c(Cl)c2)CC1)C(N)=O)[C@@H](C)CC (Ac-IEELIRAAQEQQRKNEEALRELK([PEG12-X3])-NH2) | 6.26
2 | CC[C@H](C)[C@H](NC(C)=O)C(=O)N[C@@H](CCC(=O)O)C(=O)N[C@@H](CCC(=O)O)C(=O)N[C@@H](CC(C)C)C(=O)N[C@H](C(=O)N[C@@H](CCCNC(=N)N)C(=O)N[C@@H](C)C(=O)N[C@@H](C)C(=O)N[C@@H](CCC(N)=O)C(=O)N[C@@H](CCC(=O)O)C(=O)N[C@@H](CCC(N)=O)C(=O)N[C@@H](CCC(N)=O)C(=O)N[C@@H](CCCNC(=N)N)C(=O)N[C@@H](CCCCN)C(=O)N[C@@H](CC(N)=O)C(=O)N[C@@H](CCC(=O)O)C(=O)N[C@@H](CCC(=O)O)C(=O)N[C@@H](C)C(=O)N[C@@H](CC(C)C)C(=O)N[C@@H](CCCNC(=N)N)C(=O)N[C@@H](CCC(=O)O)C(=O)N[C@@H](CC(C)C)C(=O)N[C@@H](CCCCNC(=O)CCOCCOCCOCCOCCOCCOCCOCCOCCOCCOCCOCCOCCOCCOCCOCCOCCOCCOCCOCCOCCOCCOCCOCCOCCNC(=O)c1ccc(CC2CCN(CCCN(C(=O)C3CCN(C(C)=O)CC3)c3ccc(C)c(Cl)c3)CC2)cc1)C(N)=O)[C@@H](C)CC (Ac-IEELIRAAQEQQRKNEEALRELK([PEG24-X1])-NH2) | 0.26
3 | CC[C@H](C)[C@H](NC(=O)[C@H](CCCCN)NC(=O)[C@H](CCC(N)=O)NC(=O)[C@H](CCC(=O)O)NC(=O)[C@H](Cc1c[nH]c2ccccc12)NC(C)=O)C(=O)N[C@@H](CCC(=O)O)C(=O)N[C@@H](CCC(=O)O)C(=O)N[C@@H](CC(C)C)C(=O)N[C@@H](CC(C)C)C(=O)N[C@@H](CCCCN)C(=O)N[C@@H](CCCCN)C(=O)N[C@@H](C)C(=O)N[C@@H](CCC(=O)O)C(=O)N[C@@H](CCC(=O)O)C(=O)N[C@@H](CCC(N)=O)C(=O)N[C@@H](CCC(N)=O)C(=O)N[C@@H](CCCCN)C(=O)N[C@@H](CCCCN)C(=O)N[C@@H](CC(N)=O)C(=O)N[C@@H](CCC(=O)O)C(=O)N[C@@H](CCC(=O)O)C(=O)N[C@@H](CCC(=O)O)C(=O)N[C@@H](CC(C)C)C(=O)N[C@@H](CCCCN)C(=O)N[C@@H](CCCCN)C(=O)N[C@@H](CC(C)C)C(=O)N[C@@H](CCC(=O)O)C(=O)N[C@@H](CCCCN)C(=O)N[C@@H](CCCCNC(=O)c1ccc(CC2CCN(CCCN(C(=O)C3CCN(C(C)=O)CC3)c3ccc(C)c(Cl)c3)CC2)cc1)C(N)=O (Ac-WEQKIEELLKKAEEQQKKNEEELKKLEKK(X1)-NH2) | 1.75
4 | CC[C@H](C)[C@H](NC(=O)[C@H](CCCCN)NC(=O)[C@H](CCC(N)=O)NC(=O)[C@H](CCC(=O)O)NC(=O)[C@H](Cc1c[nH]c2ccccc12)NC(C)=O)C(=O)N[C@@H](CCC(=O)O)C(=O)N[C@@H](CCC(=O)O)C(=O)N[C@@H](CC(C)C)C(=O)N[C@@H](CC(C)C)C(=O)N[C@@H](CCCCN)C(=O)N[C@@H](CCCCN)C(=O)N[C@@H](C)C(=O)N[C@@H](CCC(=O)O)C(=O)N[C@@H](CCC(=O)O)C(=O)N[C@@H](CCC(N)=O)C(=O)N[C@@H](CCC(N)=O)C(=O)N[C@@H](CCCCN)C(=O)N[C@@H](CCCCN)C(=O)N[C@@H](CC(N)=O)C(=O)N[C@@H](CCC(=O)O)C(=O)N[C@@H](CCC(=O)O)C(=O)N[C@@H](CCC(=O)O)C(=O)N[C@@H](CC(C)C)C(=O)N[C@@H](CCCCN)C(=O)N[C@@H](CCCCN)C(=O)N[C@@H](CC(C)C)C(=O)N[C@@H](CCC(=O)O)C(=O)N[C@@H](CCCCN)C(=O)N[C@@H](CCCCNC(=O)CCOCCOCCOCCOCCNC(=O)c1ccc(CC2CCN(CCCN(C(=O)C3CCN(C(C)=O)CC3)c3ccc(C)c(Cl)c3)CC2)cc1)C(N)=O (Ac-WEQKIEELLKKAEEQQKKNEEELKKLEKK([PEG4-X1])-NH2) | 1.11
5 | CC[C@H](C)[C@H](NC(=O)[C@H](CCCCN)NC(=O)[C@H](CCC(N)=O)NC(=O)[C@H](CCC(=O)O)NC(=O)[C@H](Cc1c[nH]c2ccccc12)NC(C)=O)C(=O)N[C@@H](CCC(=O)O)C(=O)N[C@@H](CCC(=O)O)C(=O)N[C@@H](CC(C)C)C(=O)N[C@@H](CC(C)C)C(=O)N[C@@H](CCCCN)C(=O)N[C@@H](CCCCN)C(=O)N[C@@H](C)C(=O)N[C@@H](CCC(=O)O)C(=O)N[C@@H](CCC(=O)O)C(=O)N[C@@H](CCC(N)=O)C(=O)N[C@@H](CCC(N)=O)C(=O)N[C@@H](CCCCN)C(=O)N[C@@H](CCCCN)C(=O)N[C@@H](CC(N)=O)C(=O)N[C@@H](CCC(=O)O)C(=O)N[C@@H](CCC(=O)O)C(=O)N[C@@H](CCC(=O)O)C(=O)N[C@@H](CC(C)C)C(=O)N[C@@H](CCCCN)C(=O)N[C@@H](CCCCN)C(=O)N[C@@H](CC(C)C)C(=O)N[C@@H](CCC(=O)O)C(=O)N[C@@H](CCCCN)C(=O)N[C@@H](CCCCNC(=O)CCOCCOCCOCCOCCOCCOCCOCCOCCNC(=O)c1ccc(CC2CCN(CCCN(C(=O)C3CCN(C(C)=O)CC3)c3ccc(C)c(Cl)c3)CC2)cc1)C(N)=O (Ac-WEQKIEELLKKAEEQQKKNEEELKKLEKK([PEG8-X1])-NH2) | 1.52
6 | CC[C@H](C)[C@H](NC(=O)[C@H](CCCCN)NC(=O)[C@H](CCC(N)=O)NC(=O)[C@H](CCC(=O)O)NC(=O)[C@H](Cc1c[nH]c2ccccc12)NC(C)=O)C(=O)N[C@@H](CCC(=O)O)C(=O)N[C@@H](CCC(=O)O)C(=O)N[C@@H](CC(C)C)C(=O)N[C@@H](CC(C)C)C(=O)N[C@@H](CCCCN)C(=O)N[C@@H](CCCCN)C(=O)N[C@@H](C)C(=O)N[C@@H](CCC(=O)O)C(=O)N[C@@H](CCC(=O)O)C(=O)N[C@@H](CCC(N)=O)C(=O)N[C@@H](CCC(N)=O)C(=O)N[C@@H](CCCCN)C(=O)N[C@@H](CCCCN)C(=O)N[C@@H](CC(N)=O)C(=O)N[C@@H](CCC(=O)O)C(=O)N[C@@H](CCC(=O)O)C(=O)N[C@@H](CCC(=O)O)C(=O)N[C@@H](CC(C)C)C(=O)N[C@@H](CCCCN)C(=O)N[C@@H](CCCCN)C(=O)N[C@@H](CC(C)C)C(=O)N[C@@H](CCC(=O)O)C(=O)N[C@@H](CCCCN)C(=O)N[C@@H](CCCCNC(=O)CCOCCOCCOCCOCCOCCOCCOCCOCCOCCOCCOCCOCCNC(=O)c1ccc(CC2CCN(CCCN(C(=O)C3CCN(C(C)=O)CC3)c3ccc(C)c(Cl)c3)CC2)cc1)C(N)=O (Ac-WEQKIEELLKKAEEQQKKNEEELKKLEKK([PEG12-X1])-NH2) | 0.35
